Experiments:
[1] = tested on: TuBEC (tumor-associated brain endothelial cells); format: cell-based; settings: seven days; for TuBEC cell death, agent alone: TMZ 300 μM, CPT-11 100 μM, Eto 50 μM, EGCG 20 μM
Experimental: Cell death ELISA. EC were treated with etoposide (Calbiochem; La Jolla, Calif.), temozolomide (TMZ) (Schering-Plough; Kenilworth, N.J.), CPT-11 (Pharmacia; New York, N.Y.), the caspase inhibitor Q-VDOPH (Calbiochem), or EGCG (Sigma-Aldrich, St. Louis, Mo.), then assayed using the Cell Death Detection ELISA Plus kit (Roche Diagnostics; Indianapolis, Ind.) according to manufacturer's protocol. Percent death was calculated based on 100% positive cell death control.
Lentiviral construct. The sequences of siRNA, the isolation of human Grp78 cDNA and their subcloning into lentiviral constructs are previously described (Dong et al, Cancer Res., 65:5785-91, 2005). The sequences of the siRNA against human GRP78 are: siGRP78A: 5′-[…]-3′ (SEQ ID NO:1) and siGRP78B: 5′-[…]-3′ (SEQ ID NO:2). The sequences of the control siRNA are: sicontrol A: 5′-[…]-3′ (SEQ ID NO:3); sicontrol B: 5′-[…]-3′ (SEQ ID NO:4). For construction of lentivirus expressing GRP78, full length human GRP78 was prepared by reverse transcription of total HEK293T RNA followed by a 2-step PCR amplification and subcloning into the BamHI/XhoI sites of pcDNA3 (Invitrogen; Carlsbad, Calif.) to yield pcDNA3-hGRP78. Non-replicating lentiviral vectors co-expressing bicistronic human GRP78 and EGFP linked via the EMCV IRES were produced using the pLenti6/V5-D-TOPO and VIRAPOWER™ Lentivirus Expression system (Invitrogen, Carlsbad, Calif.). Initially, EGFP (Clonetech; Mountain View, Calif.) was inserted into the CMV driven expression cassette by TOPO cloning. […] The human GRP78 gene digested from pcDNA3-hGRP78 using XbaI and XhoI was ligated into pLenti6/EGFP between the CMV promoter and the EGFP gene. Next, an insert encoding the EMCV IRES, was generated by PCR from pIRES-EGFP (Clonetech) and subcloned into the XhoI/AgeI sites of pLenti6/huGRP78 EGFP. The IRES sequence was inserted between the human GRP78 gene and the EGFP allowing hGRP78 expression to be monitored by EGFP fluorescence. The manufacturer's manual was followed for TOPO cloning and production of viral particles. For infection, 10^4 cells were plated in 6-well dishes and infected with lentivirus at titers of 5×10^6 units/ml (TU/ml). Infected cells, monitored for GFP, were used when cultures were 100% GFP positive.
To test whether GRP78 confers drug resistance to TuBEC, TuBEC cultures were infected with lentivirus expressing siGRP78A and siCtr1A. Five days post infection, cultures were left untreated (media), or treated with CPT-11 [100 μM], etoposide (Eto) [50 μM] or temozolomide (MZ) [300 μM]. After treatment for seven days, the cells were analyzed for cytotoxicity.
To target GRP78 through a small molecule approach, TuBEC were incubated with EGCG alone or in combination with TMZ, CPT-11, and Eto. Cytotoxicity was measured after seven days (FIG. 3D).

[2] = tested on: BEC (normal human brain endothelial cells); assay: MTT cell viability assay, BEC; format: cell-based; settings: 50 μM etoposide, 72 hours, vs DMSO vehicle
Experimental: (§1) Cell Culture. Endothelial cells (EC) were isolated from normal human brain tissue or human glioma tissue as previously described (Charalambous et al, J. Neurosurg., 102:699-705, 2005; Charalambous et al, Exp Cell Res., 313:1192-202, 2007). All experiments were performed on subconfluent (60-80%) cultures, in passages 4 to 6 only.
(§2) MTT cell viability assay. Cells were plated in triplicate (3×10^3 cells/well; […]) into 96-well plates coated with 1% gelatin. The 3-(4,5-dimethylthiazol-2-yl)-2,5-diphenyltetrazolium bromide (MTT) assay was performed according to the manufacturer's instructions (Sigma-Aldrich, St. Louis, Mo.). Percent cell viability was calculated relative to vehicle-treated controls.
(§3) To compare the sensitivities of TuBEC and BEC to chemotherapeutic agents, cells were treated with the topoisomerase II inhibitor, etoposide [1-50 μM] or DMSO (vehicle) [0.1%] for 72 hours, and cytoxicity was assessed using the MTT assay, which was performed according to manufacturer's protocol (Sigma Aldrich; St. Louis, Mo.).

[3] = tested on: TuBEC (tumor-associated brain endothelial cells); assay: MTT cell viability assay, TuBEC; format: cell-based, human; settings: 50 μM etoposide, 72 hours, vs DMSO vehicle
Experimental: as §1, §2, §3

## CCc1c2c(nc3ccc(OC(=O)N4CCC(N5CCCCC5)CC4)cc13)-c1cc3c(c(=O)n1C2)COC(=O)[C@]3(O)CC [CPT-11]
[1]
  TuBEC cell death, agent alone: did not cause TuBEC cell death

## CC(C)[C@H](NC(=O)c1ccc2ccccc2n1)C(=O)N[C@@H](CC(=O)O)C(=O)COc1c(F)cccc1F [Q-VDOPH]
[1]; Q-VDOPH [10 mM], TuBEC infected with siGRP78B
  effect of caspase inhibition on cell death induced by CPT-11, Eto or TMZ with reduced GRP78: blocked cell death

## COc1cc([C@@H]2c3cc4c(cc3[C@@H](O[C@@H]3O[C@@H]5CO[C@@H](C)O[C@H]5[C@H](O)[C@H]3O)[C@H]3COC(=O)[C@H]23)OCO4)cc(OC)c1O [etoposide]
[2]
  BEC died (cytotoxicity, MTT assay): over 60%
[3]
  cell death of TuBEC (cytotoxicity, MTT assay): no significant cell death
[1]
  TuBEC cell death, agent alone: did not cause TuBEC cell death

## (−)-epigallocatechin gallate [EGCG]
[1]; EGCG 20 μM + CPT-11 100 μM, p=0.005
  cell death, EGCG in combination with CPT-11: 46%
[1]; EGCG 20 μM + Eto 50 μM, p=0.001
  cell death, EGCG in combination with Eto: 49%
[1]; EGCG 20 μM + TMZ 300 μM, p=0.003
  cell death, EGCG in combination with TMZ: 35%
[1]
  TuBEC cell death, agent alone: did not cause TuBEC cell death

From patent US20100239596A1, “GRP78 AND TUMOR ANGIOGENESIS” (UNIVERSITY OF SOUTHERN CALIFORNIA, priority 2007, published 2010)
